Entries after “also recorded” stand apart in the source; their conditions may differ. Each block holds one substance with its values, some of them ahead of it. Where no end group is shown, it is not given here. [ ]: non-standard residue; d: D form.
Key:
TgSwDI mouse model [1] = test: Object recognition test (ORT); type: in vivo; settings: TgSwDI mice
Experimental: FIG. 1: Here, the result of the so-called “object recognition test” (ORT) is shown. Animals treated with D3D3 (amidated) (details in Table 2) and animals treated with placebo were placed individually and separately from each other in a box in which two objects were located. After the animals had time to explore both objects, the animals were removed from the box again and not placed back in there until 24 hours later. Before that, however, one object was replaced with a new object different therefrom. Animals having memory now preferably explore the new object. Animals having no memory of having stayed in the box 24 hours earlier spend the same amount of time exploring the old object and the new object. The time that the animal spends with the old object (white bars) and the new object (black bars) is measured in seconds. It is clearly apparent that the animals treated with the placebo spend the same amount of time with the new and the old objects. […] Thus, only the animals treated with D3D3 show a functioning memory in the test.
FIG. 5: Here, the result of the so-called “object recognition test” (ORT) is shown. Animals treated with RD2D3 (amidated) (details in Table 2) and animals treated with placebo were placed individually and separately from each other in a box in which two objects were located. After the animals had time to explore both objects, the animals were removed from the box again and not placed back in there until 24 hours later. Before that, however, one object was replaced with a new object different therefrom. Animals having memory now preferably explore the new object. Animals having no memory of having stayed in the box 24 hours earlier spend the same amount of time exploring the old object and the new object. The time that the animal spends with the old object (black bars) and the new object (white bars) is measured in seconds. It is clearly apparent that the animals treated with the placebo spent the same amount of time with the new and the old objects.

TBA 2.1 mice [2] = test: SHIRPA test; type: in vivo, mouse; settings: 0.1 mg/day i.p. for 4 weeks (micropump), before vs after treatment, FIG. 3, listed as D3D3 (amidated)
Experimental: FIG. 3: The SHIRPA test is a test where a number of characteristics, including reflexes, are tested. Each characteristic is assessed separately from the others, and points are awarded in each case. The higher the number of points, the more progressed the phenotype, which is to say the neurological damage, is. The SHIRPA test was measured prior to (black bars) and after (white bards) the treatment (treatment details are provided in Table 2). […] D3D3 thus acts more efficiently than D3.

TBA 2.1 mice [3] = test: Rotarod test; type: in vivo, mouse; settings: 0.1 mg/day i.p. for 4 weeks (micropump), before vs after treatment
From the text: FIG. 2: The so-called “rotarod” test is used to measure how long an animal is able to balance on a rotating rod before falling off. This allows the animal's neuromotor performance to be measured. The longer the animal is able to balance, the less strongly the motor neurons are affected by the phenotype of neurodegeneration. The difference between before and after treatment is plotted in seconds. […] As expected, the degeneration has thus progressed. […] Thus, the treatment slowed, or even stopped, the neurodegeneration in both instances.

TgSwDI mouse model [4] = test: Morris water maze; type: in vivo; settings: TgSwDI mice, 7 mg/4 weeks i.p. (micropump), day 5, FIG. 4; listed as RD2D3 (amidated)
Experimental: FIG. 4: The so-called “Morris water maze” is used to measure the spatial memory of animals. The time is measured in seconds that the animal requires to locate a platform hidden closely beneath the water surface in a water tank. This is measured in several experiments per day on several consecutive days. […] The search time is plotted in seconds on five consecutive days. The learning of animals treated with RD2D3 (amidated) was significant.

[5] = biological target: T1, amyloid beta fibrils (Aß1-42) (Homo sapiens, UniProt P05067); test: SPR binding kinetics, amyloid beta fibrils; settings: heterogeneous binding model, FIG. 8
T1 construct: 1 mg lyophilized Aß1-42 and N-terminal biotinylated Aß1-42; biotin (only on part of the peptide molecules)
T1 sequence (P05067 672-713): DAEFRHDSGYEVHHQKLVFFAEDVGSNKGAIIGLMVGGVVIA
Experimental: (§1) 1 mg lyophilized Aß1-42 and N-terminal biotinylated Aß1-42 were each dissolved in 1 ml 100% hexafluoroisopropanol (HFIP) and dissolved overnight at room temperature. For the oligomer and fibril preparation, non-biotinylated Aß was used with N-terminal biotinylated Aß at a ratio of 1:10 and the HFIP was evaporated (Concentrator 5301 from Eppendorf). The resultant Aß film, at a final concentration of 80 μM, was placed in sodium phosphate buffer (10 mM, pH 7.4) and incubated (RT, 600 rpm). The incubation time was 3 h for the oligomer preparation, and 24 h for the fibril preparation. 100% N-terminal biotinylated Aß1-42 without incubation was used for the preparation of monomers.
The density gradient centrifugation was carried out subsequent to the Aß preparation to purify the respective Aß species according to the size of the same. An iodixanol gradient in 10 mM sodium phosphate buffer, pH 7.4 with rising concentrations from 50% to 5% v/v iodixanol was used for this purpose. 100 μl of the Aß sample was applied and separated by way of ultracentrifugation (3 h, 4° C., 259000 g). […]
(§2) Binding kinetics were likewise measured by way of SPR spectroscopy using a T200 device from Biacore (GE Healthcare). […] The binding curves were evaluated by way of kinetic fit models (heterogeneous binding model) using the Biacore T200 evaluation software (version 2.0). […]

[6] = biological target: T2, amyloid beta oligomers (Aß1-42) (Homo sapiens, UniProt P05067); test: SPR binding kinetics, amyloid beta oligomer
T2 construct: 1 mg lyophilized Aß1-42 and N-terminal biotinylated Aß1-42; biotin (only on part of the peptide molecules)
T2 sequence (P05067 672-713): as above
Experimental: as §1
The density gradient centrifugation was carried out subsequent to the Aß preparation to purify the respective Aß species according to the size of the same. An iodixanol gradient in 10 mM sodium phosphate buffer, pH 7.4 with rising concentrations from 50% to 5% v/v iodixanol was used for this purpose. 100 μl of the Aß sample was applied and separated by way of ultracentrifugation (3 h, 4° C., 259000 g). Subsequently, the gradient was fractionated into 14 fractions, 140 μl each. Monomeric Aß are present in the first two top fractions, Aß oligomers in fractions 4 to 6, and Aß fibrils in fractions […].
Immobilization for Surface Plasmon Resonance (SPR) Spectroscopy A T200 from Biacore (GE Healthcare) was used for SPR spectroscopy. The Aß species purified by way of density gradient centrifugation were directly immobilized on a sensor chip (Series S Sensor Chips SA) according to the manufacturer's instructions by way of biotin-streptavidin coupling. 1×PBS was used as the running buffer. Loading took place at 25° C. and a flow rate of 5 μl/min. […]
as §2

Substance: D3D3 amidated: dimer D3D3 (SEQ ID NO: 6), amidated at position 24 at the free C-terminus ([dR][dP][dR][dT][dR][dL][dH][dT][dH][dR][dN][dR][dR][dP][dR][dT][dR][dL][dH][dT][dH][dR][dN][dR]-NH2; N-terminus assumed; SMILES CC(C)C[C@@H](NC(=O)[C@@H](CCCNC(=N)N)NC(=O)[C@H](NC(=O)[C@@H](CCCNC(=N)N)NC(=O)[C@H]1CCCN1C(=O)[C@H](N)CCCNC(=N)N)[C@H](C)O)C(=O)N[C@H](Cc1c[nH]cn1)C(=O)N[C@@H](C(=O)N[C@H](Cc1c[nH]cn1)C(=O)N[C@H](CCCNC(=N)N)C(=O)N[C@H](CC(N)=O)C(=O)N[C@H](CCCNC(=N)N)C(=O)N[C@H](CCCNC(=N)N)C(=O)N1CCC[C@@H]1C(=O)N[C@H](CCCNC(=N)N)C(=O)N[C@@H](C(=O)N[C@H](CCCNC(=N)N)C(=O)N[C@H](CC(C)C)C(=O)N[C@H](Cc1c[nH]cn1)C(=O)N[C@@H](C(=O)N[C@H](Cc1c[nH]cn1)C(=O)N[C@H](CCCNC(=N)N)C(=O)N[C@H](CC(N)=O)C(=O)N[C@H](CCCNC(=N)N)C(N)=O)[C@H](C)O)[C@H](C)O)[C@H](C)O)
Object recognition (TgSwDI mouse model [1]; 1 mg/4 weeks i.p. (micropump), FIG. 1): significant
Object recognition (TgSwDI mouse model [1]; 1 mg/4 weeks i.p. (micropump), FIG. 1, listed as D3D3): considerably improves cognition
Object recognition (TgSwDI mouse model [1]; 1 mg/4 weeks i.p. (micropump), FIG. 1, listed as D3D3 (amidated)): spend much more time with the new object
SHIRPA (TBA 2.1 mice [2]): showed no significant worsening of the SHIRPA value; also recorded: acts more efficiently than the simple peptide D3 (amidated)
Rotarod (TBA 2.1 mice [3]; FIG. 2, listed as D3D3): able to stop the progression of the phenotype
Rotarod (TBA 2.1 mice [3]; FIG. 2, listed as D3D3 (amidated)): exhibited no worsening of the neuromotor symptoms

Substance: RD2D3 amidated: dimer RD2D3 (SEQ ID NO: 4), amidated at position 24 at the free C-terminus ([dP][dT][dL][dH][dT][dH][dN][dR][dR][dR][dR][dR][dR][dP][dR][dT][dR][dL][dH][dT][dH][dR][dN][dR]-NH2; N-terminus assumed; SMILES CC(C)C[C@@H](NC(=O)[C@@H](CCCNC(=N)N)NC(=O)[C@H](NC(=O)[C@@H](CCCNC(=N)N)NC(=O)[C@H]1CCCN1C(=O)[C@@H](CCCNC(=N)N)NC(=O)[C@@H](CCCNC(=N)N)NC(=O)[C@@H](CCCNC(=N)N)NC(=O)[C@@H](CCCNC(=N)N)NC(=O)[C@@H](CCCNC(=N)N)NC(=O)[C@@H](CCCNC(=N)N)NC(=O)[C@@H](CC(N)=O)NC(=O)[C@@H](Cc1c[nH]cn1)NC(=O)[C@H](NC(=O)[C@@H](Cc1c[nH]cn1)NC(=O)[C@@H](CC(C)C)NC(=O)[C@H](NC(=O)[C@H]1CCCN1)[C@H](C)O)[C@H](C)O)[C@H](C)O)C(=O)N[C@H](Cc1c[nH]cn1)C(=O)N[C@@H](C(=O)N[C@H](Cc1c[nH]cn1)C(=O)N[C@H](CCCNC(=N)N)C(=O)N[C@H](CC(N)=O)C(=O)N[C@H](CCCNC(=N)N)C(N)=O)[C@H](C)O)
Water maze (TgSwDI mouse model [4]): able to improve the cognition of SweDI mice
Object recognition (TgSwDI mouse model [1]; 7 mg/4 weeks i.p. (micropump), FIG. 5): significant
Object recognition (TgSwDI mouse model [1]; 7 mg/4 weeks i.p. (micropump), FIG. 5, listed as RD2D3 (amidated)): spend much more time with the new object; also recorded: able to improve the cognition of SweDI mice

Binding strength (KD, kinetics) to amyloid beta fibrils [5]: sub-pM binding range
Substance: RKRTRLHTHRNR [cD3(P2K)]

Rmax, contribution of KD2 (high-affinity site) to RU total loading ([6]; oligomers, FIG. 7, high-affinity site): 21%
Rmax, contribution of the low-affinity site to RU total loading ([6]; oligomers, FIG. 7, low-affinity site (white bar)): 79%
Substance: cD3z: cD3 zero, cyclized D3 without any further amino acid attachments (cyclo([dR][dP][dR][dT][dR][dL][dH][dT][dH][dR][dN][dR]); SMILES CC(C)C[C@H]1NC(=O)[C@@H](CCCNC(=N)N)NC(=O)[C@@H]([C@H](C)O)NC(=O)[C@@H](CCCNC(=N)N)NC(=O)[C@H]2CCCN2C(=O)[C@@H](CCCNC(=N)N)NC(=O)[C@@H](CCCNC(=N)N)NC(=O)[C@@H](CC(N)=O)NC(=O)[C@@H](CCCNC(=N)N)NC(=O)[C@@H](Cc2c[nH]cn2)NC(=O)[C@@H]([C@H](C)O)NC(=O)[C@@H](Cc2c[nH]cn2)NC1=O)

Substance: rprtrlhthrnr ([dR][dP][dR][dT][dR][dL][dH][dT][dH][dR][dN][dR]) [linear D3, known D-enantiomeric peptide D3, linear, unmodified C-terminal carboxyl group, reference compound]
Binding strength (KD, kinetics) to amyloid beta oligomer ([6]; heterogeneous binding model, FIG. 7): binds only a low-affinity site, but not a high-affinity site

Source: patent publication US11274125B2, “Amyloid-beta-binding peptides and the use thereof for the treatment and diagnosis of Alzheimer's disease” (FORSCHUNGSZENTRUM JUELICH GMBH, priority 2013, dated 2022)
